{"source": "patent EP0642504B1", "about": "(priority 1991, dated 1993)", "key": {"[1]": {"system": "peritoneal leukocytes", "assay": "Leukocyte adhesion assay, peritoneal cells collected after oral dosing", "assay_type": "in vivo, CD-1 mice", "details": "cells collected 90 min after administration; for number of adhering cells x 10^-6 ± S.D.: 18-20 hours incubation", "experimental": "Leukocytes are thought to be major contributors to the inflammatory response and their ability in this regard is reflected by their adhesiveness to a variety of substrates [Audette, C.A., et al., Life Sci., 47, 753 (1990)].\nThe details of the leukocytes adhesion assay have been previously reported [Audette et al., ibid.]. In brief, peritoneal cells from femals CD-1 mice (20-25 g) were collected at 90 min following oral administration of the drug or vehicle (50 µl peanut oil). Cells from each treatment group (N=3) were pooled and equal numbers aliquoted into six culture dish wells (1.9 cm^2 area). After incubation for 18-20 hours, non-adhering cells were removed and the remaining cell monolayer quantitated by DNA measurement."}, "[2]": {"system": "mouse", "assay": "Mouse hot plate test (55°C) for antinociception", "assay_type": "in vivo", "experimental": "In the hot plate test for analgesia an aluminum surface was maintained at 55 ± 1°C by circulating water through passages in the metal. A clear plastic cylinder 18 cm in diameter and 26 cm high was placed on the surface to prevent escape. The end point was taken when the mouse either performed a hind paw lick or jumped off the surface; in no case were the animals kept for more than 30 secs on the plate. Mice were never used more than one time; control values were always measured at 11 a.m. and test values at 2 p.m. The drugs were administered orally 90 min before the hot plate test. The percent change in response time (latency) was calculated by comparing the mean of the control values with the mean of the test values and statistical signficance determined by a paired t-test analysis using software (Statview, 512) from Brainpower, Inc., Calabasas, Ca."}, "[3]": {"system": "forebrain ischemia (unilateral occlusion)", "assay": "Forebrain ischemia (unilateral occlusion)", "assay_type": "in vivo", "details": "mongolian gerbils", "source_text": "The present compounds are active in several tests generally used to indicate neuroprotection."}}, "note": "Marks after values point to notes of the source that are not given here.", "data": [{"smiles": "CCCCCCC(C)(C)c1cc(OC(C)=O)c2c(c1)OC(C)(C)[C@H]1CC=C(C(=O)O)C[C@H]21", "note": "[HU-245, (3S,4S)-THC-DMH-7-oic acid, acetate]", "values": [{"measurement": "adhering cells, percent of control", "setting": "[1]; dose 0.05 mg/kg oral", "value": "105% of control"}, {"measurement": "number of adhering cells x 10^-6 ± S.D.", "setting": "[1]; dose 0.05 mg/kg oral", "value": "1.32±0.04 x 10^-6"}, {"measurement": "adhering cells, percent of control", "setting": "[1]; dose 0.10 mg/kg oral", "value": "52% of control"}, {"measurement": "number of adhering cells x 10^-6 ± S.D.", "setting": "[1]; dose 0.10 mg/kg oral", "value": "0.66±0.05 x 10^-6"}, {"measurement": "adhering cells, percent of control", "setting": "[1]; dose 0.50 mg/kg oral", "value": "67% of control"}, {"measurement": "number of adhering cells x 10^-6 ± S.D.", "setting": "[1]; dose 0.50 mg/kg oral", "value": "0.85±0.08 x 10^-6"}, {"measurement": "adhering cells, percent of control", "setting": "[1]; dose 1.00 mg/kg oral", "value": "24% of control"}, {"measurement": "number of adhering cells x 10^-6 ± S.D.", "setting": "[1]; dose 1.00 mg/kg oral", "value": "0.30±0.04 x 10^-6"}, {"measurement": "percent change in latency", "setting": "[2]; dose 0.025 mg/kg orally 90 min before the hot plate test", "value": "10.7(5) percent"}, {"measurement": "percent change in latency", "setting": "[2]; dose 0.050 mg/kg orally 90 min before the hot plate test", "value": "66.2(5)* percent"}, {"measurement": "percent change in latency", "setting": "[2]; dose 0.10 mg/kg orally 90 min before the hot plate test", "value": "62.2(5)* percent"}, {"measurement": "percent change in latency", "setting": "[2]; dose 0.25 mg/kg orally 90 min before the hot plate test", "value": "68.1(10)* percent"}, {"measurement": "percent change in latency", "setting": "[2]; dose 0.50 mg/kg orally 90 min before the hot plate test", "value": "49.9(5)* percent"}, {"measurement": "percent change in latency", "setting": "[2]; dose 1.0 mg/kg orally 90 min before the hot plate test", "value": "12.5(5) percent"}, {"measurement": "protection against forebrain ischemia", "setting": "[3]", "value": "protect against forebrain ischemia"}]}]}
